These results are taken from US9096560B2, “5-heterocyclylalkyl-3-hydroxy-2-phenylcyclopent-2-enones as herbicides” (Syngenta Limited, priority 2008, dated 2015).

Assay type in all cases: in vivo
In assay [1] the test system is Alopecurus myosuroides (ALOMY). Put plainly: Example B post-emergence herbicidal test, ALOMY. To be noted: Alopecurus myosuroides, 312 h, rate 250 g/ha, evaluated after 13 days, scale 0-100, read-out: Post-emergence activity ALOMY (100=total damage to plant; 0=no damage to plant). In short, it runs like this: (§1)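 Damage was rated visually 13 days after treatment, where 100 meant total plant damage and 0 none. Treatment was a spray of aqueous solution (acetone/water 50:50, 0.5% Tween 20) applied to plants cultivated 8 days from seed under controlled glasshouse conditions.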

Assay [2] has as its system Winter Wheat variety 'Hereward'. Put plainly: Example C crop damage test on Winter Wheat, post-emergence, no safener. To be noted: Triticum aestivum, 312 h, rate 250 g/ha, evaluated after 13 days, read-out: Winter Wheat (Hereward) damage (100=total damage to plant; 0=no damage to plant). As for the experimental part: Seeds of the Winter Wheat variety ‘Hereward’ were sown in standard soil in pots. After 8 days cultivation under controlled conditions in a glasshouse (at 24/16° C., day/night; 14 hours light; 65% humidity), the plants were sprayed with an aqueous spray solution derived from the formulation of the technical active ingredient in acetone/water (50:50) solution containing 0.5% Tween 20 (polyoxyethelyene sorbitan monolaurate, CAS RN 9005-64-5). The test plants were then grown in a glasshouse under controlled conditions in a glasshouse (at 24/16° C., day/night; 14 hours light; 65% humidity) and watered twice daily. After 13 days for pre and post-emergence, the test was evaluated (100=total damage to plant; 0=no damage to plant).

Assay [3] has as its system Avena fatua (AVEFA). Put plainly: Example B pre-emergence herbicidal test, AVEFA. The following applies: Avena fatua, 312 h, rate 250 g/ha, evaluated after 13 days, 100=total damage to plant, 0=no damage to plant. In short, it runs like this:
(§2)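 Pre-emergence spray one day after sowing; vehicle acetone/water (50:50), 0.5% Tween 20. Percent damage (0 = no effect, 100 = plant killed) recorded 13 days later.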

In assay [4] the test system is Lolium perenne (LOLPE). The assay is described as follows: Example B pre-emergence herbicidal test, LOLPE. To be noted: Lolium perenne, 312 h, rate 250 g/ha, evaluated after 13 days, 100=total damage to plant, 0=no damage to plant. In short, it runs like this: as §2
Assay [5] relates to Winter Wheat variety 'Hereward' seed treated with cloquintocet mexyl. The assay is described as follows: Example C crop damage test on Winter Wheat seed treated with safener cloquintocet mexyl, post-emergence. The following applies: rate 250 g/ha, seed treated with cloquintocet mexyl 0.5 grams per kilogram of dry seed, evaluated after 13 days. As for the experimental part:
Seeds of the Winter Wheat variety ‘Hereward’ were seed treated with a wettable powder formulation of the cereal herbicide safener, cloquintocet mexyl, at a rate of 0.5 grams per kilogram of dry seed prior to the initiation of glasshouse testing. One seed was sown per 1.5 inch plastic pot into a sandy loam soil at a depth of 1 cm, 8 days prior to application of the test compounds and was watered and grown under controlled conditions in a glasshouse (at 24/16° C., day/night; 14 hours light; 65% humidity). The plants were sprayed Post-emergence with an aqueous spray solution derived from the formulation of the technical active ingredient in acetone/water (50:50) solution containing 0.5% Tween 20 (polyoxyethelyene sorbitan monolaurate, CAS RN 9005-64-5). The test plants were then grown in a glasshouse under controlled conditions in a glasshouse (at 24/16° C., day/night; 14 hours light; 65% humidity) and watered twice daily. After 13 days for pre and post-emergence, the test was evaluated (100=total damage to plant; 0=no damage to plant).

Assay [6] relates to Echinochloa crus-galli (ECHCG). Put plainly: Example B post-emergence herbicidal test, ECHCG. The following applies: Echinochloa crus-galli, 312 h, rate 250 g/ha, evaluated after 13 days, scale 0-100, read-out: Post-emergence activity ECHCG (100=total damage to plant; 0=no damage to plant). In short, it runs like this:
as §1

Assay [7] relates to Avena fatua (AVEFA). The assay is described as follows: Example B post-emergence herbicidal test, AVEFA. To be noted: Avena fatua, 312 h, rate 250 g/ha, evaluated after 13 days, scale 0-100, read-out: Post-emergence activity AVEFA (100=total damage to plant; 0=no damage to plant). In short, it runs like this:
as §1

In assay [8] the test system is Alopecurus myosuroides (ALOMY). The assay is described as follows: Example B pre-emergence herbicidal test, ALOMY. The following applies: Alopecurus myosuroides, 312 h, rate 250 g/ha, evaluated after 13 days, 100=total damage to plant, 0=no damage to plant. The method, boiled down: as §2
In assay [9] the test system is Lolium perenne (LOLPE). The assay is described as follows: Example B post-emergence herbicidal test, LOLPE. The following applies: Lolium perenne, 312 h, rate 250 g/ha, evaluated after 13 days, scale 0-100, read-out: Post-emergence activity LOLPE (100=total damage to plant; 0=no damage to plant). In short, it runs like this: as §1
Assay [10] concerns Echinochloa crus-galli (ECHCG). The assay is described as follows: Example B pre-emergence herbicidal test, ECHCG. To be noted: Echinochloa crus-galli, 312 h, rate 250 g/ha, evaluated after 13 days, 100=total damage to plant, 0=no damage to plant. The method, boiled down:
as §2

On to `Cc1cc(C)c(C2C(=O)CC(CC3CCCOC3)C2=O)c(C)c1` (centres unmarked) [Compound T16], for which the pest or weed control at 250 g/ha stood at 100% in [1]; 80% with Avena fatua (AVEFA) [3]; 100% in the assay with Lolium perenne (LOLPE) [4]; 100% in assay [6]; 100% in the assay with Avena fatua (AVEFA) [7]; 100% in assay [8]. Moreover, the pest or weed control at 250 g/ha (with Lolium perenne (LOLPE) [9]; in assay [10]) was 100% each time. The crop damage to winter wheat at 250 g/ha in [2] was 80%. Further, the “Winter Wheat (Hereward) + cloquintocet mexyl damage (100=total damage to plant; 0=no damage to plant)” value in assay [5] was found to be 20.
Regarding `Cc1cc(C)c(C2=C(OC(=O)C(C)(C)C)C/C(=C\C3CCOCC3)C2=O)c(C)c1` [Compound P11], the pest or weed control at 250 g/ha in assay [1] was 90%; with Avena fatua (AVEFA) [3], 100%; in the assay on Lolium perenne (LOLPE) [4], 100%; in [6], 100%; in the assay with Avena fatua (AVEFA) [7], 90%; in assay [8] it was 100%. In addition, the pest or weed control at 250 g/ha (with Lolium perenne (LOLPE) [9]; in assay [10]) was 100% each time. In addition, the crop damage to winter wheat at 250 g/ha in [2] stood at 80%. The “Winter Wheat (Hereward) + cloquintocet mexyl damage (100=total damage to plant; 0=no damage to plant)” value in assay [5] is listed as 70.
In the case of `Cc1cc(-c2ccc(Cl)cc2)cc(C)c1C1C(=O)CC(CC2CCOCC2)C1=O` (centres unmarked) [Compound T64], the pest or weed control at 250 g/ha worked out at 90% in assay [1]; 90% with Avena fatua (AVEFA) [3]; 100% in the assay on Lolium perenne (LOLPE) [4]; 100% in assay [6]; 100% with Avena fatua (AVEFA) [7]; 50% in assay [8]. The pest or weed control at 250 g/ha in the assay on Lolium perenne (LOLPE) [9] amounted to 90%; in [10] it was 100%. The crop damage to winter wheat at 250 g/ha in [2] is 80%. Also, in [5], the “Winter Wheat (Hereward) + cloquintocet mexyl damage (100=total damage to plant; 0=no damage to plant)” value was 70.
Consider `CON1CCC(CC2CC(OC(=O)OC(C)C)=C(c3c(C)cc(C)cc3C)C2=O)CC1` (centres unmarked) [Compound P56], for which the pest or weed control at 250 g/ha in [1] came out at 90%; in the assay on Avena fatua (AVEFA) [3], 90%; in the assay on Lolium perenne (LOLPE) [4], 100%; in assay [6] it was 90%; with Avena fatua (AVEFA) [7], 100%; in [8], 100%. The pest or weed control at 250 g/ha (with Lolium perenne (LOLPE) [9]; in [10]) was 100% each time. In addition, the crop damage to winter wheat at 250 g/ha in [2] stood at 90%. For the same compound, the “Winter Wheat (Hereward) + cloquintocet mexyl damage (100=total damage to plant; 0=no damage to plant)” value in assay [5] is 60.
Consider `COC(=O)N1CCC(CC2CC(=O)C(c3c(C)cc(C)cc3C)C2=O)CC1` (centres unmarked) [Compound T98], for which the pest or weed control at 250 g/ha is 100% in assay [1]; 80% in the assay on Avena fatua (AVEFA) [3]; 90% with Lolium perenne (LOLPE) [4]; 90% in assay [6]; 100% with Avena fatua (AVEFA) [7]; 70% in [8]. Further, the pest or weed control at 250 g/ha with Lolium perenne (LOLPE) [9] stood at 100%; in assay [10], 90%. Moreover, in assay [2], the crop damage to winter wheat at 250 g/ha was determined as 90%. Besides, the “Winter Wheat (Hereward) + cloquintocet mexyl damage (100=total damage to plant; 0=no damage to plant)” value in [5] was found to be 60.
Turning to `CCCOC(=O)OC1=C(c2c(C)cc(C)cc2C)C(=O)C(CC2CCOC2)C1` (centres unmarked) [Compound P20], the pest or weed control at 250 g/ha in assay [1] amounted to 100%; in the assay with Avena fatua (AVEFA) [3] it was 90%; in the assay with Lolium perenne (LOLPE) [4] it was 100%; in assay [6], 100%; in the assay with Avena fatua (AVEFA) [7] it was 90%; in assay [8], 100%. The pest or weed control at 250 g/ha with Lolium perenne (LOLPE) [9] turned out to be 100%; in assay [10] it was 80%. The crop damage to winter wheat at 250 g/ha in assay [2] amounted to 40%. In addition, the “Winter Wheat (Hereward) + cloquintocet mexyl damage (100=total damage to plant; 0=no damage to plant)” value in assay [5] is on record as 0.
As for `Cc1cc(-c2ccc(Cl)cc2)cc(C)c1C1C(=O)C/C(=C\C2CCOCC2)C1=O` (centres unmarked) [Compound T62], the pest or weed control at 250 g/ha in assay [1] amounted to 90%; in the assay with Avena fatua (AVEFA) [3] it was 70%; in the assay with Lolium perenne (LOLPE) [4] it was 100%; in assay [6], 100%; in the assay with Avena fatua (AVEFA) [7] it was 100%; in assay [8], 80%. The values for the pest or weed control at 250 g/ha (in the assay with Lolium perenne (LOLPE) [9]; in assay [10]) were 90% and 100%, respectively. The crop damage to winter wheat at 250 g/ha in assay [2] worked out at 80%. Further, the “Winter Wheat (Hereward) + cloquintocet mexyl damage (100=total damage to plant; 0=no damage to plant)” value in assay [5] is 70.
With `Cc1cc(C)c(C2=C(OC(=O)c3ccccc3)CC(CC3CCOC3)C2=O)c(C)c1` (centres unmarked) [Compound P17], the pest or weed control at 250 g/ha in assay [1] stood at 100%; with Avena fatua (AVEFA) [3], 90%; with Lolium perenne (LOLPE) [4], 100%; in [6], 100%; in the assay with Avena fatua (AVEFA) [7], 90%; in assay [8] it was 100%. Moreover, the pest or weed control at 250 g/ha amounted to 100% in the assay with Lolium perenne (LOLPE) [9] and 90% in [10]. The crop damage to winter wheat at 250 g/ha in assay [2] stood at 70%. Also, the “Winter Wheat (Hereward) + cloquintocet mexyl damage (100=total damage to plant; 0=no damage to plant)” value in assay [5] is reported as 0.
`Cc1cc(C)c(C2=C(OC(=O)C(C)C)CC(CC3CCOC3)C2=O)c(C)c1` (centres unmarked) [Compound P13]: the pest or weed control at 250 g/ha stood at 90% in assay [1]; 90% in the assay on Avena fatua (AVEFA) [3]; 100% in the assay on Lolium perenne (LOLPE) [4]; 100% in assay [6]; 90% in the assay on Avena fatua (AVEFA) [7]; 100% in assay [8]. For the same compound, the pest or weed control at 250 g/ha (with Lolium perenne (LOLPE) [9]; in [10]) was 100% in each case. The crop damage to winter wheat at 250 g/ha in assay [2] was found to be 70%. Besides, the “Winter Wheat (Hereward) + cloquintocet mexyl damage (100=total damage to plant; 0=no damage to plant)” value in [5] was 10.
With `CCc1cc(C)cc(CC)c1C1C(=O)C(CC2CCOCC2)C(CC2CCOCC2)C1=O` (centres unmarked) [Compound T12], the pest or weed control at 250 g/ha (in [1]; in the assay with Avena fatua (AVEFA) [3]; with Lolium perenne (LOLPE) [4]; in assay [6]; with Avena fatua (AVEFA) [7]; in [8]) was 100% throughout. In addition, the pest or weed control at 250 g/ha (with Lolium perenne (LOLPE) [9]; in assay [10]) was 100% each time. In addition, the crop damage to winter wheat at 250 g/ha in assay [2] worked out at 70%. Also, the “Winter Wheat (Hereward) + cloquintocet mexyl damage (100=total damage to plant; 0=no damage to plant)” value in assay [5] worked out at 60.
`CCCCCCC(=O)OC1=C(c2c(C)cc(C)cc2C)C(=O)C(CC2CCOC2)C1` (centres unmarked) [Compound P16]: the pest or weed control at 250 g/ha in assay [1] was 100%; in the assay with Avena fatua (AVEFA) [3] it was 90%; with Lolium perenne (LOLPE) [4], 100%; in assay [6] it was 100%; with Avena fatua (AVEFA) [7] it was 100%; in [8], 100%. In addition, the pest or weed control at 250 g/ha (with Lolium perenne (LOLPE) [9]; in assay [10]) was 100% throughout. Moreover, in [2], the crop damage to winter wheat at 250 g/ha was determined as 70%. For the same compound, the “Winter Wheat (Hereward) + cloquintocet mexyl damage (100=total damage to plant; 0=no damage to plant)” value in assay [5] was found to be 0.
